Measured values as given in ChEMBL document CHEMBL1201862, “PubChem BioAssay data set” (2004).
Active and inactive are the calls of the source.

Key:
[1] = tested on: P388/ADR; test: cells; assay type: functional; settings: Mus musculus
[2] = tested on: SN12K1; test: cells; assay type: functional; settings: Homo sapiens
[3] = tested on: P388; test: cells; assay type: functional; settings: Mus musculus
[4] = intracellular Trypanosoma cruzi inhibitors in host cells – cell-based, plate reader, cherry-pick samples, set 3, dose response (AID 651818); assay type: functional;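 further: compounds incubated with infected cells for about four days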
[5] = target: Paired box protein Pax-8 (Homo sapiens, UniProt Q06710); test: inhibitors of PAX8-driven TPO luciferase reporter, dose response, RMG-I cells, cherry-pick (AID 687027); assay type: functional, cell-based;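 further: luciferase reporter driven by Pax8 target thyroperoxidase promoter measured by SteadyGlo luminescence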
Paired box protein Pax-8, sequence (Q06710 whole entry): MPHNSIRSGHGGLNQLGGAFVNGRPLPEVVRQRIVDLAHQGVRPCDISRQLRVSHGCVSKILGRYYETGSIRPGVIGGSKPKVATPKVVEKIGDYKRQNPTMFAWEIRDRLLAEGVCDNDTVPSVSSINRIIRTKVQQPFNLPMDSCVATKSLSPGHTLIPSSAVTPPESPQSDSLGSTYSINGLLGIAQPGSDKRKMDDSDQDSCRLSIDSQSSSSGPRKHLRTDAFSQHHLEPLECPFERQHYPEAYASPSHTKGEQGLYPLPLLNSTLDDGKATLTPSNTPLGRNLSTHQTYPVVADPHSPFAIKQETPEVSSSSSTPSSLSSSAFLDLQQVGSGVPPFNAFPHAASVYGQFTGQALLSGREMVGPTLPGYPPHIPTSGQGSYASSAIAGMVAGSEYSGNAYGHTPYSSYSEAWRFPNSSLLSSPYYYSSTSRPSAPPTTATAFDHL

[6] = NIH:OVCAR-3 ovarian cancer cell cytotoxicity, dose response, PAX8 inhibitor project, plate reader, dry powder samples (AID 743044); assay type: functional, cell-based
[7] = cytotoxicity in OVCAR8 ovarian cancer cells, dose response, PAX8 project, cell-based, plate reader, dry powder samples (AID 743197); assay type: functional; settings: OVCAR-8
[8] = target: T1, Leucine aminopeptidase (Plasmodium falciparum 3D7, UniProt Q8IL11); test: P. falciparum M17LAP inhibitors, primary screen, biochemical, fluorogenic H-Leu-NHMec substrate, 1536-well (AID 1619); assay type: functional
T1 sequence (Q8IL11 whole entry): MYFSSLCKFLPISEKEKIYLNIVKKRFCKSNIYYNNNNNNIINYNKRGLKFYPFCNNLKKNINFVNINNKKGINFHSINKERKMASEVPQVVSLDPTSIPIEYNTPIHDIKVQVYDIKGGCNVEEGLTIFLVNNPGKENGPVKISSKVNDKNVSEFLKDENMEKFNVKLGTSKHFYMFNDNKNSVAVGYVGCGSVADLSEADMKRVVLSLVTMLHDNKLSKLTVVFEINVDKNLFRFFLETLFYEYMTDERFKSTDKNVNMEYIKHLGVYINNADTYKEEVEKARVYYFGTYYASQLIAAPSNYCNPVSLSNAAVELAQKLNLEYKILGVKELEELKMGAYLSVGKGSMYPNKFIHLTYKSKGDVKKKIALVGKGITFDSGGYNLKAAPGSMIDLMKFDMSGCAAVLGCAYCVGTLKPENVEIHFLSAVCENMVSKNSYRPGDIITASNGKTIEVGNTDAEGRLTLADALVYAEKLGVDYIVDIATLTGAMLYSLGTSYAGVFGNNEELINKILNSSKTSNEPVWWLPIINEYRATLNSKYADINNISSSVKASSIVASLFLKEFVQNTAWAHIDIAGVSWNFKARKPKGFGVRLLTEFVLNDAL

[9] = target: Heat shock protein HSP 90-alpha (Homo sapiens, UniProt P07900); assay type: functional, organism-based
[10] = target: T2, Polyadenylate-binding protein 1 (Homo sapiens, UniProt P11940); test: PABP1 MLLE–PAM2 interaction inhibitors, dose response, miRNA deadenylation inhibitor project, biochemical, fluorescence polarization, Cy5-PAM2 peptide, secondary (AID 602260); assay type: functional; settings: read-out: IC50_Mean
T2 sequence (P11940 whole entry): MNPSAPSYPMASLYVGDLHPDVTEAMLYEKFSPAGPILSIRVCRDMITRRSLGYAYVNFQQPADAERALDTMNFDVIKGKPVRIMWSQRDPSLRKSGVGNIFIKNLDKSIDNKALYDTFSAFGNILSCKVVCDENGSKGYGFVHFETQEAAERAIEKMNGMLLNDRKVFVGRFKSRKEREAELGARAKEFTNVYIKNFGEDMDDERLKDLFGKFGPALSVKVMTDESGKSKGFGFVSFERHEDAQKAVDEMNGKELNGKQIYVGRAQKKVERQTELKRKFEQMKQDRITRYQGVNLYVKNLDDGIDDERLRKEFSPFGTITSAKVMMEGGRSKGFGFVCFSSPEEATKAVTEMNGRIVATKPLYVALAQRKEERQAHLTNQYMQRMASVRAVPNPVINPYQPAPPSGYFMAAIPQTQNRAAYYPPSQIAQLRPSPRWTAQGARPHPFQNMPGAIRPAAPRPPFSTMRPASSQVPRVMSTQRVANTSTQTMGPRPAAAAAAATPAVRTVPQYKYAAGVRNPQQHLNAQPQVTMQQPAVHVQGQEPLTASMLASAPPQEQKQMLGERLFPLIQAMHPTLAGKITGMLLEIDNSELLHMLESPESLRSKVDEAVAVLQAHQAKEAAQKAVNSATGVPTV

[11] = target: T2, Polyadenylate-binding protein 1; test: PABP1 MLLE–PAM2 binding inhibitor potency, dose response, biochemical, fluorescence polarization, FITC-PAM2 peptide (AID 602259); assay type: functional; settings: read-out: IC50_Mean
[12] = inhibitors of firefly luciferase expression or activity, dose response, H4 neuroglioma cells, luminescence (AID 1990); assay type: functional, cell-based
[13] = cells; assay type: functional, cell-based
[14] = Luminescence Cell-Based Dose Response HTS to Identify Inhibitors of 5'UTR Stem-Loop Driven Prion Protein mRNA Translation in H4 Neuroglioblastoma Cells. [Related pubchem assays: 1827 (Project Summary), 1813 (Primary HTS)]; assay type: functional
[15] = inhibitors of SNCA 5'UTR-driven reporter translation, confirmation, H4 neuroglioma cells, luminescence (AID 1988); assay type: functional, cell-based
[16] = cells; assay type: functional, cell-based; remark: listed apart in the source
[17] = Luminescence Cell-Based Dose Retest to Confirm Inhibitors of Cancer Stem Cells. [Related pubchem assays (depositor defined):AID2717, AID2721]; assay type: functional; settings: Homo sapiens
[18] = tested on: INS1; test: beta cell apoptosis inhibitors, cytokine rescue, dose response, luminescence, retest (AID 449756); assay type: functional, cell-based; settings: Rattus norvegicus;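 further: cell death triggered by IL-1 beta plus TNF-alpha plus IFN-gamma mixture; protective hits raise ATP signal compared with cytokine alone wells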
[19] = Shn3 3'UTR reporter inhibitors, dose response, cell-based, Clone20 osteoblasts, firefly luciferase, cherry-picked (AID 624132); assay type: functional;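 further: firefly luciferase luminescence from reporter carrying the Shn3 3'UTR in osteoblasts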
[20] = HepG2 cell cytotoxicity, dose response, cytotoxicity control for Shn3 inhibitor project, CellTiter-Glo, cherry-picked (AID 624134); assay type: functional, cell-based
[21] = control 3'UTR Renilla luciferase suppression, dose response, counter-screen for Shn3 inhibitor project, cell-based, Clone20-Shn3RL, cherry-picked (AID 624133); assay type: functional
[22] = cells; assay type: functional, cell-based; remark: listed apart in the source
[23] = cells; assay type: functional, cell-based; remark: listed apart in the source
[24] = Luminescence Cell-Based Dose Confirmation HTS to Identify Activators of 5'UTR Stem-Loop Driven Alpha-Synuclein mRNA Translation in H4 Neuroglioblastoma Cells. [Related pubchem assays: 1829 (Project Summary), 1814 (Primary HTS)]; assay type: functional
[25] = Luminescence Cell-Based Dose Response HTS to Identify Activators of Luciferase Translation or Activity in H4 […] Cells. [Related pubchem assays: 1829 (Project Summary), 1814 (Primary HTS)]; assay type: functional
[26] = tested on: H4; test: Luminescence Cell-Based Dose Response HTS to Identify Activators of 5'UTR Stem-Loop Driven Prion Protein mRNA Translation in H4 Neuroglioblastoma Cells. [Related pubchem assays: 1829 (Project Summary), 1814 (Primary HTS)]; assay type: functional; settings: Homo sapiens
[27] = target: T3, Low molecular weight phosphotyrosine protein phosphatase (Homo sapiens, UniProt P24666); assay type: functional; settings: read-out: IC50_Mean;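 further: Dose-response confirmation assay measuring inhibition of LMPTP enzyme activity by fluorescence intensity read-out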
T3 sequence (P24666 whole entry): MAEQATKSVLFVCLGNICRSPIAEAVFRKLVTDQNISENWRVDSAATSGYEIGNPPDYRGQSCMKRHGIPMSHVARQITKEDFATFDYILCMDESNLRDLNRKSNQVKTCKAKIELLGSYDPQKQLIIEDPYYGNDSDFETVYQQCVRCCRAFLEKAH

[28] = tested on: Streptococcus sp. 'group A'; test: growth inhibition of control SK(-) GAS strain, dose response, counter-screen for streptokinase expression inhibitor project, luminescence, kanamycin, BacTiterGlo, confirmation (AID 1900); assay type: functional, organism-based
[29] = target: T4, Streptokinase A (Streptococcus pyogenes serotype M1, UniProt P10520); test: S. pyogenes streptokinase expression inhibitors, potency, dose response, plasminogen activation absorbance, OD405 (AID 1914); assay type: functional, Streptococcus pyogenes M1 GAS;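 further: secreted streptokinase activity via plasminogen activation per viability signal from cell pellet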
T4 sequence (P10520 whole entry): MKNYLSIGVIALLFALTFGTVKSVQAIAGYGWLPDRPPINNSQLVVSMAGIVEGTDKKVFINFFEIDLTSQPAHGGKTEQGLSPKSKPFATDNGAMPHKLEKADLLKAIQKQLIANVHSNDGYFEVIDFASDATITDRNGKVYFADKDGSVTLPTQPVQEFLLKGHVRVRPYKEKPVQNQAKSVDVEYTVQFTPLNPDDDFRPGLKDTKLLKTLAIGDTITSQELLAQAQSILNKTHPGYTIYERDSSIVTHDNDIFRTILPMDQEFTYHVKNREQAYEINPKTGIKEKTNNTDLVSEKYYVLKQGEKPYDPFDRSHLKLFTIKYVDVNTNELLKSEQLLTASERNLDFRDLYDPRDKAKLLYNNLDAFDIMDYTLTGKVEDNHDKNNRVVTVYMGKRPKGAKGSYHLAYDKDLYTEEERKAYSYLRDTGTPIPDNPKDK

[30] = inhibitors of intracellular T. cruzi replication, confirmation, NIH3T3 host cells, beta-gal luminescence (AID 2044); assay type: functional, cell-based;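 further: intracellular parasites grown in NIH/3T3 mouse fibroblasts as host cells; luminescent beta-galactosidase reporter signal from transgenic T. cruzi replicating inside host cells; inhibitors lower the luminescence signal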
[31] = cytotoxicity toward NIH3T3 fibroblasts, dose response, counter-screen, cell-based, ATP luminescence, mouse fibroblasts (AID 2010); assay type: functional;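 further: cells exposed to compound for about 90 hours before reading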
[32] = tested on: Streptococcus; test: Group A Streptococcus viability loss, dose response, counter-screen for streptokinase expression inhibitor project, luminescence, BacTiterGlo (AID 1915); assay type: functional, organism-based;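 further: potency for reduction of bacterial viability or growth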
[33] = IGROV1 ovarian cancer cell cytotoxicity, dose response, PAX8 inhibitor project, plate reader, dry powder samples (AID 743043); assay type: functional, cell-based; settings: IGROV-1

SMILES: O=c1n(CC2CO2)c(=O)n(CC2CO2)c(=O)n1CC1CO1 (configuration not stated) [TEROXIRONE]
- GI50 [1]: 1.91 µM (inactive)
- GI50 [2]: 35.6 µM (inactive)
- GI50 [3]: 1.61 µM (inactive)

SMILES: C[C@H](CO)N1C[C@H](C)[C@H](CN(C)Cc2ccc(C(=O)Nc3ccccc3N)cc2)Oc2c(cccc2N(C)C)C1=O
- AC50 [4]: 3.67 µM (active)

SMILES: C[C@@H]1CN([C@H](C)CO)C(=O)Cc2cc(NC(=O)NC3CCCCC3)ccc2O[C@H]1CN(C)Cc1ccc(-c2ccccc2)cc1
- AC50 [4]: 4.51 µM (active)

SMILES: C[C@@H]1CN([C@H](C)CO)C(=O)c2cc(NS(=O)(=O)c3ccccc3)ccc2O[C@@H](C)CCCCO[C@@H]1CN(C)CC1CCCCC1
- AC50 [5]: 19.6 µM (active)
- AC50 [6]: 53.9 µM (active)
- AC50 [7]: 68 µM (active)

SMILES: Cc1ccc(-n2c(C)cc(C(=O)NS(=O)(=O)c3ccc(C)cc3)c2C)cc1
- IC50 [8]: 25.4 µM (active)

SMILES: COc1ccc(S(=O)(=O)Nc2ccc3c(c2)CC(=O)N([C@@H](C)CO)C[C@@H](C)[C@@H](CN(C)Cc2ccc(C(F)(F)F)cc2)O3)cc1
- AC50 [4]: 5.93 µM (active)

SMILES: Cc1cc(-c2ccc(/N=N/c3ccc4c(S(=O)(=O)O)cc(S(=O)(=O)O)c(N)c4c3O)c(C)c2)ccc1/N=N/c1ccc2c(S(=O)(=O)O)cc(S(=O)(=O)O)c(N)c2c1O
- GI50 [1]: > 100 µM (inactive)
- GI50 [2]: > 100 µM (inactive)
- GI50 [3]: > 100 µM (inactive)

SMILES: Cc1cc2cc(CNC(=O)c3ccc(C)c([N+](=O)[O-])c3)ccc2[nH]1
- AC50 [9]: 11 µM (active)
- IC50 [10]: > 66 µM (inactive)
- IC50 [11]: > 66 µM (inactive)

SMILES: C=Cc1cc(OC)c2c(c1)c(=O)oc1c2cc(OC)c2c(O)ccc(C3OC(C)C(O)C(C)(O)C3O)c21 (configuration not stated)
- GI50 [1]: 0.0225 µM (active)
- GI50 [2]: 0.0269 µM (active)
- GI50 [3]: 0.0225 µM (active)
- AC50 [5]: < 0.26 µM (active)

SMILES: C[C@@]12CC[C@H]3[C@@H]4CCC(=O)N[C@@]4(C)CC[C@@H]3[C@@]1(C)CC[C@H](OC(=O)Cc1ccc(N(CCCl)CCCl)cc1)C2
- GI50 [1]: 14.7 µM (inactive)
- GI50 [2]: 16.9 µM (inactive)
- GI50 [3]: 10.6 µM (inactive)

SMILES: CCOC(=O)c1cnc(-n2nc(C)cc2C)nc1NNc1nc(-c2ccccc2)cc(-c2ccccc2)n1
- EC50 [12]: 8.48 µM (active)
- EC50 [13]: > 350 µM (not active)
- EC50 [14]: 12.6 µM (active)
- EC50 [15]: 8.83 µM (active)
- EC50 [16]: > 350 µM (not active)
- AC50 [17]: 1.88 µM (active)
- AC50 [18]: 2.69 µM (active)
- AC50 [19]: 3.84 µM (active)
- AC50 [20]: 48.5 µM (active)
- AC50 [21]: 7.39 µM (active)

SMILES: O=C(O)C1CC=CCC1C(=O)NCCc1ccccc1 (configuration not stated)
- IC50 [22]: > 29.9 µM (inactive)
- EC50 [23]: > 29.9 µM (inactive)

SMILES: C(=NOCCc1ccccc1)c1cccnc1
- IC50 [22]: > 29.8 µM (inactive)
- EC50 [23]: > 29.8 µM (inactive)

SMILES: C[C@H](CO)N1C[C@H](C)[C@H](CN(C)C(=O)Nc2ccc(C(F)(F)F)cc2)Oc2c(NC(=O)Nc3ccc(C(F)(F)F)cc3)cccc2C1=O
- AC50 [4]: 6.56 µM (active)

SMILES: CCn1cc(C(=O)O)c(=O)c2cnc(N3CCN(C(=S)Nc4ccccc4Cl)CC3)nc21
- EC50 [24]: > 120 µM (not active)
- EC50 [25]: > 120 µM (not active)
- EC50 [26]: > 120 µM (not active)
- IC50 [27]: 35.9 µM (inactive)

SMILES: Cc1cc(Cl)nc(Cl)c1C(=O)NCCc1ccccc1
- IC50 [22]: > 29.9 µM (inactive)
- EC50 [23]: > 29.9 µM (inactive)

SMILES: COc1ccc(CNC(=O)C2CC(C)=C(C)CC2C(=O)O)cc1 (configuration not stated)
- IC50 [8]: 43.7 µM (active)

SMILES: CC(C)c1ccc(-c2cc(C(=O)N3N=C(C(F)F)CC3(O)C(F)F)c3ccccc3n2)cc1 (configuration not stated)
- EC50 [28]: 3.3 µM (active)
- EC50 [26]: 10 µM (active)
- EC50 [29]: > 150 µM (not active)
- EC50 [30]: 3.4 µM (active)
- EC50 [31]: > 60 µM (not active)
- EC50 [32]: 4.31 µM (active)
- AC50 [17]: 4.37 µM (active)
- AC50 [9]: 4.06 µM (active)

SMILES: C[C@@H]1CCCCO[C@@H](CN(C)S(=O)(=O)c2ccc(Cl)cc2)[C@H](C)CN([C@H](C)CO)C(=O)c2cc(NS(=O)(=O)c3ccc(F)cc3)ccc2O1
- AC50 [5]: 3.41 µM (active)
- AC50 [33]: 57.7 µM (active)

SMILES: C=C1CCCC(C)(C)[C@@H]1CC/C(C)=C/Cn1c2cccc(=O)c-2nc2ccccc21
- GI50 [1]: 0.229 µM (active)
- GI50 [2]: 1.48 µM (inactive)
- GI50 [3]: 0.569 µM (active)

SMILES: O=C1CC(=O)C(n2cncn2)C(c2ccc(Cl)cc2Cl)C1 (configuration not stated)
- IC50 [8]: 17.9 µM (active)

SMILES: CCCCCCCCCCCC1CCCC(C)N1 (configuration not stated)
- GI50 [1]: 12.4 µM (inactive)
- GI50 [2]: 28.3 µM (inactive)
- GI50 [3]: 10.5 µM (inactive)
